Measurements published in patent US20220372585A1, “Sensors for Aromatic Compounds and Methods of Making and Using Same” (Washington University, priority 2021, published 2022).
Entries after “also recorded” stand apart in the source; their conditions may differ. Like-named read-outs stand apart in the source and are kept apart here.

Assays:
[1] = tested on: TynA-FeaR system; test: microbe, parasite or virus in culture; conditions: for EC50 / fold induction at 1250 µM: Escherichia coli; for EC50: read-out: KA (half maximal constant); for fold induction at 1250 µM: read-out: fold induction of the reporter; for Fmax / Fmin / n (Hill coefficient): wild-type TynA and FeaR, pCX008, pHJY022
Method: To develop sensors for aromatic amines, the TynA-FeaR system was first characterized in EcN. A sensor plasmid was constructed, which consisted of constitutively expressed TynA and FeaR from E. coli MG1655, and a reporter plasmid, which consisted of GFP under the control of PtynA (see e.g., FIG. 3B). […] Next, the sensitivity and selectivity to different ligands was characterized.
For fluorescence-based quantification, single colonies were transferred to 5 mL LB medium (VWR, Radnor, Pa., USA) in 14 mL round bottom tubes and incubated overnight at 250 rpm and 37° C. Unless otherwise specified, experimental cultures were prepared by diluting overnight cultures 100× into 0.6 mL M9 minimal medium supplemented with 1 mM MgSO4, […]), and 2% w/v glycerol as well as the respective ligands (DA, PEA, Tyra, and Trypta) in 2 mL 96-deep well plates. Cultures were grown for 24 h at 37° C. and 250 rpm. After 5 h and 24 h of incubation, samples were obtained from the cultures for flow cytometry analysis.
Flow cytometry was performed as previously described. Culture samples were collected and diluted to a final OD600 of ˜0.005-0.01 in […] filtered phosphate-buffered saline supplemented with 2 mg/ml kanamycin in 96-well assay microplates (U-bottom, REF-353910 from BD Biosciences, San Jose, Calif., USA). The fluorescence of the samples was measured using a Millipore Guava EasyCyte High Throughput flow cytometer with a 488 nm excitation laser and 512/18 nm emission filter. Cytometry data was gated by forward and side scatter. FlowJo (TreeStar Inc.) was used to obtain the arithmetic mean of the fluorescence distribution. The averages of the arithmetic means were calculated from three biological replicates. The average fluorescence of the non-fluorescent wild-type cell was subtracted from each sample to obtain the final fluorescence (au) values (Equation 2). To obtain the relative fluorescence in FIG. 6A-FIG. 6C, fluorescence values for each variant were normalized to the fluorescence of the wild-type sensor using Equation 3.
The Hill equation (Equations 4 and 5) was used to fit lines to the fluorescence data. The model was fit to the experimentally collected data by minimizing the root mean square error (RMSE; Equation 6).

[2] = tested on: G415H TynA with wild-type FeaR; type: cell-based, E. coli MG1655; conditions: for Fmax / Fmin / n (Hill coefficient): G415H TynA + wild-type FeaR, pCX008, pCX015; for response: G415H
Method: (§1) Flow cytometry was performed as previously described. […] Cytometry data was gated by forward and side scatter.

[3] = tested on: G494S TynA and A81S FeaR; type: cell-based, E. coli MG1655; conditions: for Fmax / Fmin / n (Hill coefficient): G494S TynA + A81S FeaR, pCX008, pCX032
Method: as §1

[4] = tested on: G494S TynA with A81T FeaR; type: cell-based, E. coli MG1655; conditions: for Fmax / Fmin / n (Hill coefficient): G494S TynA + A81T FeaR, pCX008, pCX014; for response: G494S*
Method: as §1

[5] = tested on: G494S TynA with wild-type FeaR; type: cell-based, E. coli MG1655; conditions: for Fmax / Fmin / n (Hill coefficient): G494S TynA + wild-type FeaR, pCX008, pCX010
Method: as §1

[6] = tested on: wild-type TynA with A81T FeaR; type: cell-based, E. coli MG1655; conditions: 24 h; for effect of the A81T FeaR mutation on the response of the sensor: wild-type TynA, 1 mM, FIG. 21
Method: as §1

[7] = tested on: wild-type TynA and A81L FeaR; test: microbe, parasite or virus in culture; type: cell-based, E. coli MG1655; conditions: for EC50: Escherichia coli, read-out: KA (half maximal constant), wild-type TynA + A81L FeaR; for response: A81L FeaR
Method: as §1

[8] = tested on: wild-type TynA with A81P FeaR; test: microbe, parasite or virus in culture; type: cell-based, E. coli MG1655; conditions: for EC50: Escherichia coli, read-out: KA (half maximal constant), wild-type TynA + A81P FeaR
Method: as §1

[9] = tested on: TynA-KP with FeaR-KA I109N; test: GFP fluorescence from PtynA-MG with TynA-KP and FeaR-KA I109N; type: cell-based, Klebsiella aerogenes; conditions: for induction of fluorescence: I109N variant, 0.5 mM, 24 h, FIG. 32
Description: FIG. 32. […] Sensor system with PtynA-MG, TynA-KP and FeaR-KA was chosen as the wild type (WT) for further directed evolution. TynA-KP was employed to reduce the possible interference from DA during evolution processes. Values and error bars are the average and standard deviation of biological triplicate, respectively.
FIG. 33A-FIG. 33B. […] The expression of PtynA-MG was regulated by the TynA-KP with FeaR-KA I109N mutant. Points represent experimental data while lines represent the fitted curves. […] Values and error bars are the average and standard deviation of biological triplicate, respectively.

[10] = wild-type TynA + A81T FeaR, pCX008, pCX016, FIG. 22A
[11] = wild-type TynA + A81L FeaR, pCX008, pCX024, FIG. 5C, 24 h
[12] = wild-type TynA + A81L FeaR, pCX008, pCX024, FIG. 24, 5 h
[13] = wild-type TynA + A81P FeaR, pCX008, pCX025, FIG. 25A, 5 h
[14] = wild-type TynA + A81P FeaR, pCX008, pCX025, FIG. 25B, 24 h

SMILES: NCCc1ccccc1 [Phenylethylamine, phenylethylamine]
- EC50 ([1]; 5 h): 42 µM
- EC50 ([1]; 24 h): 87 µM
- fold induction at 1250 µM [1]: > 1500
- Fmax ([1]; FIG. 3D, 24 h induction): 1430
- Fmin ([1]; FIG. 3D, 24 h induction): 0
- n (Hill coefficient) ([1]; FIG. 3D, 24 h induction): 3.9
- Fmax ([1]; FIG. 14, 5 h induction): 315
- Fmin ([1]; FIG. 14, 5 h induction): 10.4
- n (Hill coefficient) ([1]; FIG. 14, 5 h induction): 2
- Fmax ([2]; FIG. 4D, 24 h): 84
- Fmin ([2]; FIG. 4D, 24 h): 0
- n (Hill coefficient) ([2]; FIG. 4D, 24 h): 0.6
- Fmax ([2]; FIG. 17B, 5 h): 118
- Fmin ([2]; FIG. 17B, 5 h): 0
- n (Hill coefficient) ([2]; FIG. 17B, 5 h): 0.4
- Fmax ([3]; FIG. 23A, 5 h): 462
- Fmin ([3]; FIG. 23A, 5 h): 3.4
- n (Hill coefficient) ([3]; FIG. 23A, 5 h): 1.2
- Fmax ([3]; FIG. 25B, 22B [sic], 24 h): 475
- Fmin ([3]; FIG. 25B, 22B [sic], 24 h): 5.9
- n (Hill coefficient) ([3]; FIG. 25B, 22B [sic], 24 h): 1.5
- Fmax ([4]; FIG. 4C, 22B, 24 h): 790
- Fmin ([4]; FIG. 4C, 22B, 24 h): 5.4
- n (Hill coefficient) ([4]; FIG. 4C, 22B, 24 h): 1.4
- Fmax ([4]; FIG. 17A, 5 h): 9280
- Fmin ([4]; FIG. 17A, 5 h): 1.1
- n (Hill coefficient) ([4]; FIG. 17A, 5 h): 1.2
- fold induction ([4]; G494S* double mutant sensor): 140 fold
- Fmax ([5]; FIG. 18A, 5 h): 18
- Fmin ([5]; FIG. 18A, 5 h): 0.8
- n (Hill coefficient) ([5]; FIG. 18A, 5 h): 36
- Fmax ([5]; FIG. 18B, 22B, 24 h): 4012
- Fmin ([5]; FIG. 18B, 22B, 24 h): 3.4
- n (Hill coefficient) ([5]; FIG. 18B, 22B, 24 h): 1.3
- fold induction ([5]; G494S single mutant sensor): 50 fold
- Fmax [6, 10]: 1010
- Fmin [6, 10]: 18
- n (Hill coefficient) [6, 10]: 4.3
- effect of the A81T FeaR mutation on the response of the sensor [6]: insignificant impact
- fold induction ([7]; A81L sensor, FIG. 5C): 580 fold
- EC50 ([7]; 5 h, pCX008, pCX024, FIG. 24, 5 h): 74 µM
- EC50 ([7]; 24 h, pCX008, pCX024, FIG. 5C, 24 h): 140 µM
- Fmax [7, 11]: 585
- Fmin [7, 11]: 4.8
- KA (half maximal constant) [7, 11]: 0.137 mM
- n (Hill coefficient) [7, 11]: 2.7
- Fmax [7, 12]: 289
- Fmin [7, 12]: 5.1
- n (Hill coefficient) [7, 12]: 2.6
- EC50 ([8]; 5 h, pCX008, pCX025, FIG. 25A, 5 h): 14 µM
- EC50 ([8]; 24 h, pCX008, pCX025, FIG. 25B, 24 h): 50 µM
- Fmax [8, 13]: 14
- Fmin [8, 13]: 0.4
- n (Hill coefficient) [8, 13]: 8.4
- Fmax [8, 14]: 112
- Fmin [8, 14]: 1.1
- KA (half maximal constant) [8, 14]: 0.052 mM
- n (Hill coefficient) [8, 14]: 20.3
- induction of fluorescence [9]: not

SMILES: NCCc1c[nH]c2ccccc12 [Tryptamine, tryptamine]
- EC50 ([1]; 5 h): 45 µM
- EC50 ([1]; 24 h): 85 µM
- fold induction at 1250 µM [1]: ~280
- Fmax ([1]; FIG. 3D, 24 h induction): 268
- Fmin ([1]; FIG. 3D, 24 h induction): 1.3
- n (Hill coefficient) ([1]; FIG. 3D, 24 h induction): 4.3
- Fmax ([1]; FIG. 14, 5 h induction): 57
- Fmin ([1]; FIG. 14, 5 h induction): 5.9
- n (Hill coefficient) ([1]; FIG. 14, 5 h induction): 3.1
- response ([2]; 5 h, FIG. 17B): lack of response
- response ([2]; 24 h, FIG. 4D): lack of response; also recorded: minimal response
- response ([3]; G494S TynA and A81S FeaR, 5 h and 24 h, FIG. 23A-B): lack of response
- response ([4]; 5 h, FIG. 17A): lack of response
- response ([4]; 24 h, FIG. 4C): lack of response
- response ([5]; G494S TynA, wild-type FeaR, 5 h and 24 h, FIG. 18A-B): lack of response
- effect of the A81T FeaR mutation on the response of the sensor [6]: significantly reduced
- response ([7]; 5 h, FIG. 24): lack of response
- response ([7]; 24 h, FIG. 5C): lack of response
- response ([8]; A81P FeaR, 5 h and 24 h, FIG. 25A-B): lack of response
- response ([9]; FeaR-KA I109N, 5 h and 24 h, FIG. 33A-B): lack of response
- induction of fluorescence [9]: induction of fluorescence
